Experimental data published in patent US6458746B1, “Plant growth regulating formulations” (BASF Aktiengesellschaft, priority 1998, dated 2002).

Tests used:
Type in all cases: in vivo
[1] = system: rice seedlings [cvs. “Koshihikari” (tall), “Tan-ginbozu” (dwarf), “Waito C” (dwarf)]; experiment: Shoot growth of rice seedlings, combinations with GA3; conditions: 7 days after treatment, 1 kg/ha ammonium sulphate added; for Shoot growth Waito C [% of Control]: 100% = 8.7 cm; for Shoot growth Tan-ginbozu [% of Control]: 100% = 9.4 cm; for Shoot growth Koshihikari [% of Control]: 100% = 17.4 cm
Protocol: (§1) Unless otherwise noted, the growth regulating proerties of different compounds in different formulations were determined under greenhouse conditions as follows: […]
(§2) Test plants were grown in plastic pots of approximately 12.5 cm in diameter in a substrate provided with sufficient nutrients and water. At an appropriate shoot length the plants were treated with aqueous sprays of the formulations. The growth-regulating action observed was confirmed at the end of the experiment by measuring the height of the plants. The results obtained were compared with the growth height of the untreated plants.
The synergizing effect of compound VII on shoot elongation in rice is shown in the results of Example 7.
Enhanced shoot growth of rice seedlings [cvs. “Koshihikari” tall), “Tan-ginbozu” (dwarf), “Waito C” (dwarf)] 7 days after treatment with combinations of compound 6 with GA3^d

wheat = experiment: Greenhouse shoot length test, wheat; conditions: for Shoot length reduction [activity, relative to control] in wheat: 1% formulations in cyclohexanone: Emulan EL = 4:1; for Shoot length Wheat [% of control]: 1% formulations in Atlas G 1086; for dosages of active ingredient needed to obtain results equivalent to compounds VI, VII, and IX: in wheat; for Shoot length reduction [activity, relative to control] in wheat: key: 0: no effect; +: low activity; ++: intermediate activity; +++: high activity
Protocol: as §1, §2
(§3) Assays with wheat, barley, oat, and rye plants were carried out as described above. The aqueous spray solutions were prepared as follows: […]

barley = experiment: Greenhouse shoot length test, barley; conditions: for Shoot length reduction [activity, relative to control] in barley: 1% formulations in cyclohexanone: Emulan EL = 4:1; for Shoot length Barley [% of control]: 1% formulations in Atlas G 1086
Protocol: as §1, §2, §3

oats = experiment: Greenhouse shoot length test, oats; conditions: 1% formulations in cyclohexanone: Emulan EL = 4:1; note: key: 0: no effect; +: low activity; ++: intermediate activity; +++: high activity
Protocol: as §1, §2

rye = experiment: Greenhouse shoot length test, rye; conditions: 1% formulations in cyclohexanone: Emulan EL = 4:1; note: key: 0: no effect; +: low activity; ++: intermediate activity; +++: high activity
Protocol: as §1, §2

rice = experiment: Greenhouse shoot length test, rice; conditions: 1% formulations in cyclohexanone: Emulan EL = 4:1; note: key: 0: no effect; +: low activity; ++: intermediate activity; +++: high activity
Protocol: as §1, §2

[2] = system: small grains and rice (wheat, barley, oats, rye, rice); experiment: Shoot length reduction in small grains and rice (statements across species); conditions: for shoot length reduction compared with compounds II to V: Examples 1 and 2; for activity-enhancing effects of ethoxylated castor oil R 15: barley and wheat, Example 5; for dosages needed to obtain results equivalent to compounds VI, VII, and IX: in these plant species, applied in commercial formulations; for activity in the other plant species compared with wheat: plant species other than wheat
Protocol: as §1, §2

[3] = system: spring barley (cv. “Alexis”); experiment: Shoot height reduction in spring barley, synergistic combinations; conditions: 20 days after treatment
Protocol: as §1, §2
(§4) To show the synergistic effects of formulations in accordance with the instant invention together with further growth regulating agents, formulations in accordance with the invention were prepared and additional active ingredients added.
Shoot height reduction in spring barley (cv. “Alexis”) 20 days after treatment with combinations of standard compound S2 and compound VII
Shoot height reduction in spring barley (cv. “Alexis”) 20 days after treatment with combinations of standard compound S4 and compound VII

[4] = system: spring wheat (cv. “Ralle”); experiment: Shoot height reduction in spring wheat, synergistic combinations
Protocol: as §1, §2, §4
Shoot height reduction in spring wheat (cv. “Ralle”) 21 days after treatment with combinations of standard compound S4 and compound VII
Shoot height reduction in spring wheat (cv. “Ralle”) 13 days after treatment with combinations of standard compound S5 and compound VII

[5] = 250 g/ha ai, adjuvant R 15 500 g/ha
[6] = 750 g/ha ai, adjuvant R 15 500 g/ha

Which results are given for C=C1C[C@]23C[C@@]1(O)CC[C@H]2[C@@]12C=C[C@H](O)[C@@](C)(C(=O)O1)[C@H]2[C@@H]3C(=O)O (single isomer, unassigned; ent-3) [S6, ent-3α,10,13-trihydroxy-20-norgiberrell-1,16-diene-7,19-dioic acid 19,10-lactone, reference compound]?
Shoot growth Waito C [% of Control] ([1]; S6 1.25 g/ha ai): 115 % of Control; Shoot growth Tan-ginbozu [% of Control] ([1]; S6 1.25 g/ha ai): 128 % of Control; Shoot growth Koshihikari [% of Control] ([1]; S6 1.25 g/ha ai): 109 % of Control; Shoot growth Waito C [% of Control] ([1]; S6 2.50 g/ha ai): 143 % of Control; Shoot growth Tan-ginbozu [% of Control] ([1]; S6 2.50 g/ha ai): 160 % of Control; Shoot growth Koshihikari [% of Control] ([1]; S6 2.50 g/ha ai): 112 % of Control; Shoot growth Waito C [% of Control] ([1]; S6 5.00 g/ha ai): 190 % of Control; Shoot growth Tan-ginbozu [% of Control] ([1]; S6 5.00 g/ha ai): 186 % of Control; Shoot growth Koshihikari [% of Control] ([1]; S6 5.00 g/ha ai): 124 % of Control

For CC1CC23CC1(O)CCC2C12CC=CC(C)(C(=O)O1)C2C3C(=O)O (stereo not drawn) [Comp. II, exo-16,17-Dihydro-GA5], which “Shoot length reduction [activity, relative to control] in wheat” value (wheat) is on record?
Its value is “+”.

And the “Shoot length reduction [activity, relative to control] in barley” value (barley)?
Its value is “+”.

What about the “Shoot length reduction [activity, relative to control] in oats” value (oats) of the same compound?
The value was 0.

What about the “Shoot length reduction [activity, relative to control] in rye” value (rye) of the same compound?
Its value is “++”.

How did the “Shoot length reduction [activity, relative to control] in wheat” value (wheat) turn out when CCCO[C@]12CC[C@@H]3[C@](C[C@H]1C)(C2)[C@@H](C(=O)O)[C@H]1[C@@]32CC=C[C@]1(C)C(=O)O2 [Comp. IX, exo-16,17-Dihydro-GA5-13-n-propyl ether] was run?
Its value is “++”.

What about the “Shoot length reduction [activity, relative to control] in barley” value (barley) of the same compound?
The value was “++”.

What about the “Shoot length reduction [activity, relative to control] in oats” value (oats) of the same compound?
The value was “++”.

And the “Shoot length reduction [activity, relative to control] in rye” value (rye)?
Its value is “++”.

What about the “Shoot length reduction [activity, relative to control] in rice” value (rice) of the same compound?
Its value is “++”.

What about the “shoot length reduction compared with compounds II to V” value [2] of the same compound?
The value was “superior to compounds II to V”.

Which “Shoot length reduction [activity, relative to control] in wheat” value (wheat) does the source give for CC(=O)OC12CCC3C(CC1C)(C2)C(C(=O)O)C1C2(C)C=CCC13OC2=O (stereo not drawn) [Comp. VI, endo-16,17-Dihydro-GA5-13-acetate] here?
Its value is “+++”.

And the “Shoot length Wheat [% of control]” value (wheat; 1.6 g/ha ai)?
The value was 88 % of control.

And the “Shoot length Wheat [% of control]” value (wheat; 3.1 g/ha ai)?
The value was 88 % of control.

And the “Shoot length Wheat [% of control]” value (wheat; 6.3 g/ha ai)?
The value was 68 % of control.

What about the “Shoot length Wheat [% of control]” value (wheat; 12.5 g/ha ai) of the same compound?
The value was 64 % of control.

And the “Shoot length reduction [activity, relative to control] in barley” value (barley)?
The value was “+++”.

And the “Shoot length Barley [% of control]” value (barley; 1.6 g/ha ai)?
Its value is 95 % of control.

What about the “Shoot length Barley [% of control]” value (barley; 3.1 g/ha ai) of the same compound?
Its value is 84 % of control.

What about the “Shoot length Barley [% of control]” value (barley; 6.3 g/ha ai) of the same compound?
The value was 65 % of control.

What about the “Shoot length Barley [% of control]” value (barley; 12.5 g/ha ai) of the same compound?
Its value is 53 % of control.

And the “Shoot length reduction [activity, relative to control] in oats” value (oats)?
The value was “++”.

What about the “Shoot length reduction [activity, relative to control] in rye” value (rye) of the same compound?
Its value is “+++”.

What about the “Shoot length reduction [activity, relative to control] in rice” value (rice) of the same compound?
The value was “+++”.

And the “shoot length reduction compared with compounds II to V” value [2]?
The value was “superior to compounds II to V”.

Which results are given for O=P(O)(O)CCCl [S1, ethephon, reference compound]?
Shoot length [% of control] Wheat (wheat; [5]): 92 % of control; Shoot length [% of control] Wheat (wheat; 250 g/ha ai, no adjuvant): 93 % of control; Shoot length [% of control] Barley (barley; [5]): 101 % of control; Shoot length [% of control] Barley (barley; 250 g/ha ai, no adjuvant): 95 % of control; activity-enhancing effects of ethoxylated castor oil R 15 [2]: not or only at a far lower degree found; dosages needed to obtain results equivalent to compounds VI, VII, and IX [2]: approximately 20 times higher

How did the “Shoot length [% of control] Wheat” value (wheat; [6]) turn out when C[N+](C)(C)CCCl [S2, chlormequat chloride, reference compound] was run?
The value was 75 % of control.

And the “Shoot length [% of control] Wheat” value (wheat; 750 g/ha ai, no adjuvant)?
Its value is 83 % of control.

What about the “dosages of active ingredient needed to obtain results equivalent to compounds VI, VII, and IX” value (wheat) of the same compound?
The value was “approximately 100 times higher”.

And the “Shoot length [% of control] Barley” value (barley; [6])?
Its value is 94 % of control.

What about the “Shoot length [% of control] Barley” value (barley; 750 g/ha ai, no adjuvant) of the same compound?
Its value is 94 % of control.

And the “activity-enhancing effects of ethoxylated castor oil R 15” value [2]?
The value was “not or only at a far lower degree found”.

What about the “activity in the other plant species compared with wheat” value [2] of the same compound?
Its value is “significantly less active”.

What about the “% Shoot height reduction Actual” value ([3]; 750 g/ha a.i.) of the same compound?
Its value is 11%.

What about the “% Shoot height reduction Actual” value ([3]; 1500 g/ha a.i.) of the same compound?
The value was 10%.

With C[N+]1(C)CCCCC1 [S3, mepiquat chloride, reference compound] as the compound, how does the “dosages of active ingredient needed to obtain results equivalent to compounds VI, VII, and IX” value (wheat) read?
The value was “approximately 100 times higher”.

What about the “activity in the other plant species compared with wheat” value [2] of the same compound?
The value was “significantly less active”.

With CCOC(=O)C1CC(=O)C(=C(O)C2CC2)C(=O)C1 (centres unmarked) [S5, trinexapac-ethyl, reference compound] as the compound, how does the “dosages needed to obtain results equivalent to compounds VI, VII, and IX” value [2] read?
Its value is “approximately 20 times higher”.

What about the “% Shoot height reduction Actual” value ([4]; 30 g/ha a.i., 13 days after treatment) of the same compound?
The value was 14%.

How did the “Shoot length reduction [activity, relative to control] in wheat” value (wheat) turn out when “Dichloromethano-16,17-dihydro-GA5-13-acetate [Comp. V]” was run?
The value was 0.

And the “Shoot length Wheat [% of control]” value (wheat; 1.6 g/ha ai)?
The value was 101 % of control.

And the “Shoot length Wheat [% of control]” value (wheat; 3.1 g/ha ai)?
Its value is 95 % of control.

And the “Shoot length Wheat [% of control]” value (wheat; 6.3 g/ha ai)?
The value was 84 % of control.

And the “Shoot length Wheat [% of control]” value (wheat; 12.5 g/ha ai)?
Its value is 75 % of control.

What about the “Shoot length reduction [activity, relative to control] in barley” value (barley) of the same compound?
The value was 0.

What about the “Shoot length Barley [% of control]” value (barley; 1.6 g/ha ai) of the same compound?
The value was 99 % of control.

What about the “Shoot length Barley [% of control]” value (barley; 3.1 g/ha ai) of the same compound?
Its value is 97 % of control.

What about the “Shoot length Barley [% of control]” value (barley; 6.3 g/ha ai) of the same compound?
The value was 82 % of control.

What about the “Shoot length Barley [% of control]” value (barley; 12.5 g/ha ai) of the same compound?
Its value is 76 % of control.

And the “Shoot length reduction [activity, relative to control] in oats” value (oats)?
Its value is “+”.

And the “Shoot length reduction [activity, relative to control] in rye” value (rye)?
The value was “+”.

What does the source list for endo-16,17-Dihydro-GA5 [Comp. III]?
Shoot length reduction [activity, relative to control] in wheat (wheat): ++; Shoot length reduction [activity, relative to control] in barley (barley): ++; Shoot length reduction [activity, relative to control] in oats (oats): 0; Shoot length reduction [activity, relative to control] in rye (rye): +++

Which “dosages needed to obtain results equivalent to compounds VI, VII, and IX” value [2] does the source give for “prohexadione-Ca [S4, reference compound]” here?
Its value is “approximately 20 times higher”.

And the “% Shoot height reduction Actual” value ([4]; 30 g/ha a.i., 21 days after treatment)?
Its value is 6%.

And the “% Shoot height reduction Actual” value ([4]; 60 g/ha a.i., 21 days after treatment)?
The value was 15%.
